# Source: PubChem BioAssay AID1963959 (Molecular Pharmacology Branch, DTP, NCI, 2024)
# Tested on: T-47D spheroids with HUVEC/MSC, viability
# Assay: Anticancer human tumor T-47D cell line growth inhibition [PI3K];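 further: spheroids exposed to agents for seven days before reading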;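 on viability, T/C: percent of DMSO vehicle control luminescence so 100% = untreated growth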
# Conditions: for IC50: curve of first compound; for viability, T/C: stronger effect = lower value
# In short: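 Tumor cells grown as multi-cell spheroids with HUVEC endothelial cells and MSC fibroblast-like stroma were treated with targeted agents combined with inavolisib, alpelisib, duvelisib or copanlisib. Doses fell in half-log steps from near clinical Cmax, else from 10 microM. Viability was measured.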
# [1] = second compound 0.0316 µM, first compound 0.0316 µM
# [2] = second compound 0.0316 µM, first compound 0.1 µM
# [3] = second compound 0.1 µM, first compound 0.0316 µM
# [4] = second compound 0.1 µM, first compound 0.1 µM
# [5] = second compound 0.316 µM, first compound 0.0316 µM
# [6] = second compound 0.316 µM, first compound 0.1 µM
# [7] = second compound 1 µM, first compound 0.0316 µM
# [8] = second compound 1 µM, first compound 0.1 µM
# [9] = second compound 3.16 µM, first compound 0.0316 µM
# [10] = second compound 3.16 µM, first compound 0.1 µM
# [11] = second compound 10 µM, first compound 0.0316 µM
# [12] = second compound 10 µM, first compound 0.1 µM
smiles,measurement,setting,value
CC(C)NCC(C(=O)N1CCN(c2ncnc3c2C(C)CC3O)CC1)c1ccc(Cl)cc1 (centres undefined) + CC(Nc1ncnc2nc[nH]c12)c1cc2cccc(Cl)c2c(=O)n1-c1ccccc1,IC50,second compound 0.0316 µM,> 10000 nM
same,IC50,second compound 0.1 µM,> 10000 nM
same,IC50,second compound 0.316 µM,> 10000 nM
same,IC50,second compound 1 µM,> 10000 nM
same,IC50,second compound 3.16 µM,> 10000 nM
same,IC50,second compound 10 µM,> 10000 nM
same,"viability, T/C",[1],107%
same,"viability, T/C",[2],73.4%
same,"viability, T/C","second compound 0.0316 µM, first compound 0.316 µM",91.6%
same,"viability, T/C","second compound 0.0316 µM, first compound 1 µM",81.4%
same,"viability, T/C","second compound 0.0316 µM, first compound 3.16 µM",59.9%
same,"viability, T/C","second compound 0.0316 µM, first compound 10 µM",57.2%
same,"viability, T/C",[3],111%
same,"viability, T/C",[4],75.5%
same,"viability, T/C","second compound 0.1 µM, first compound 0.316 µM",88.5%
same,"viability, T/C","second compound 0.1 µM, first compound 1 µM",66.2%
same,"viability, T/C","second compound 0.1 µM, first compound 3.16 µM",60.2%
same,"viability, T/C","second compound 0.1 µM, first compound 10 µM",63.6%
same,"viability, T/C",[5],98.3%
same,"viability, T/C",[6],78.6%
same,"viability, T/C","second compound 0.316 µM, first compound 0.316 µM",77.4%
same,"viability, T/C","second compound 0.316 µM, first compound 1 µM",65.9%
same,"viability, T/C","second compound 0.316 µM, first compound 3.16 µM",65.2%
same,"viability, T/C","second compound 0.316 µM, first compound 10 µM",62.2%
same,"viability, T/C",[7],79.8%
same,"viability, T/C",[8],104%
same,"viability, T/C","second compound 1 µM, first compound 0.316 µM",90.1%
same,"viability, T/C","second compound 1 µM, first compound 1 µM",63.4%
same,"viability, T/C","second compound 1 µM, first compound 3.16 µM",61.9%
same,"viability, T/C","second compound 1 µM, first compound 10 µM",60.4%
same,"viability, T/C",[9],98.7%
same,"viability, T/C",[10],84.4%
same,"viability, T/C","second compound 3.16 µM, first compound 0.316 µM",81.7%
same,"viability, T/C","second compound 3.16 µM, first compound 1 µM",87.5%
same,"viability, T/C","second compound 3.16 µM, first compound 3.16 µM",55.3%
same,"viability, T/C","second compound 3.16 µM, first compound 10 µM",62.9%
same,"viability, T/C",[11],93.5%
same,"viability, T/C",[12],93.1%
same,"viability, T/C","second compound 10 µM, first compound 0.316 µM",87.3%
same,"viability, T/C","second compound 10 µM, first compound 1 µM",74%
same,"viability, T/C","second compound 10 µM, first compound 3.16 µM",67.3%
same,"viability, T/C","second compound 10 µM, first compound 10 µM",57.9%
CC(C)n1nc(-c2ccc3oc(N)nc3c2)c2c(N)ncnc21 + CC(Nc1ncnc2nc[nH]c12)c1cc2cccc(Cl)c2c(=O)n1-c1ccccc1,IC50,second compound 0.0316 µM,70.5 nM
same,IC50,second compound 0.1 µM,83.5 nM
same,IC50,second compound 0.316 µM,61.8 nM
same,IC50,second compound 1 µM,72.2 nM
same,IC50,second compound 3.16 µM,64.3 nM
same,IC50,second compound 10 µM,50.9 nM
same,"viability, T/C","second compound 0.0316 µM, first compound 0.000316 µM",116%
same,"viability, T/C","second compound 0.0316 µM, first compound 0.001 µM",103%
same,"viability, T/C","second compound 0.0316 µM, first compound 0.00316 µM",98.8%
same,"viability, T/C","second compound 0.0316 µM, first compound 0.01 µM",97.3%
same,"viability, T/C",[1],90%
same,"viability, T/C",[2],33.1%
same,"viability, T/C","second compound 0.1 µM, first compound 0.000316 µM",92.2%
same,"viability, T/C","second compound 0.1 µM, first compound 0.001 µM",76.5%
same,"viability, T/C","second compound 0.1 µM, first compound 0.00316 µM",87.8%
same,"viability, T/C","second compound 0.1 µM, first compound 0.01 µM",92.8%
same,"viability, T/C",[3],79.2%
same,"viability, T/C",[4],44.6%
same,"viability, T/C","second compound 0.316 µM, first compound 0.000316 µM",93.5%
same,"viability, T/C","second compound 0.316 µM, first compound 0.001 µM",107%
same,"viability, T/C","second compound 0.316 µM, first compound 0.00316 µM",91.3%
same,"viability, T/C","second compound 0.316 µM, first compound 0.01 µM",104%
same,"viability, T/C",[5],67.6%
same,"viability, T/C",[6],37.3%
same,"viability, T/C","second compound 1 µM, first compound 0.000316 µM",86.4%
same,"viability, T/C","second compound 1 µM, first compound 0.001 µM",107%
same,"viability, T/C","second compound 1 µM, first compound 0.00316 µM",78.4%
same,"viability, T/C","second compound 1 µM, first compound 0.01 µM",90%
same,"viability, T/C",[7],83.7%
same,"viability, T/C",[8],36.6%
same,"viability, T/C","second compound 3.16 µM, first compound 0.000316 µM",99.4%
same,"viability, T/C","second compound 3.16 µM, first compound 0.001 µM",94.2%
same,"viability, T/C","second compound 3.16 µM, first compound 0.00316 µM",86.9%
same,"viability, T/C","second compound 3.16 µM, first compound 0.01 µM",76.2%
same,"viability, T/C",[9],82.2%
same,"viability, T/C",[10],33.1%
same,"viability, T/C","second compound 10 µM, first compound 0.000316 µM",95%
same,"viability, T/C","second compound 10 µM, first compound 0.001 µM",75.1%
same,"viability, T/C","second compound 10 µM, first compound 0.00316 µM",80.5%
same,"viability, T/C","second compound 10 µM, first compound 0.01 µM",75.6%
same,"viability, T/C",[11],61.4%
same,"viability, T/C",[12],35.1%
